Experimental data: patent US20100022541A1, “Chemical inhibitors of bacterial heptose synthesis, methods for their preparation and biological applications of said inhibitors” (priority 2006, published 2010)

What follows are molecules tested against T1, RfaE (Escherichia coli, UniProt P76658) (assay: Inhibition of the enzymatic activity of RfaE (HTS luminescent or fluorescent biochemical assay)). Settings: dose-response, FIG. 1.
T1 construct: made in house; host or cells: E. coli
Parameters: species or system E. coli
Description: According to another object, the invention also relates to a method for assessing RfaE enzymatic activity. • Said method comprises • pre-incubating at room temperature • DMSO or inhibitor to be tested dissolved in DMSO and RfaE in an assay buffer • and either • adding a reaction mixture composed of RfaE, β-heptose-7-phosphate, ATP, in the assay buffer and incubating at room temperature • adding a revelation mixture composed of luciferase, D-luciferin and N-acetylcysteamine • measuring the luminescence intensity and converting into inhibition % to further calculate the IC50 values; • or • adding a reaction mixture composed of RfaE, β-heptose-7-phosphate ATP, pyruvate kinase, phosphoenolpyruvate, lactate dehydrogenase and NADH in said assay buffer, • measuring the fluorescence intensity of NADH kinetically and deriving inhibition % from fitted initial velocities, to further calculate the IC50 values.
Inhibition of the Enzymatic Activity of RfaE
RfaE is a kinase belonging to the ribokinase family. It catalyses an essential step of the biosynthesis of L-ADP-Heptose, namely the phosphorylation of β-heptose-7-phosphate (H7P) into β-heptose-1,7-bisphosphate (H17P). RfaE assays as described in the literature are essentially based on direct HLPC detection of the substrates H7P and ATP, and of the products H17P and ADP, raising obvious limitations for HTS applications. The assays described below are based either on luminescent ATP detection, or on fluorescent ADP detection. They are easily amenable to miniaturized formats and fast readouts as required by HTS.
The assay buffer “AB” contains 50 mM Hepes pH7.5, 1 mM MnCl2, 25 mM KCl, 0.012% Triton-X100 and 1 mM DTT. The following components are added in a white polystyrene Costar plate up to a final volume of 31 μL: 3 μL DMSO, or inhibitor dissolved in DMSO and 28 μL RfaE in AB. After 30 min of pre-incubation at room temperature, 29 μL of Substrates mix in AB are added in each well to a final volume of 60 μL. This reaction mixture is then composed of 3 nM RfaE (produced in house from E. coli), 0.2 μM β-heptose-7-phosphate (in house synthesis) and 0.2 μM ATP (Sigma) in assay buffer. After 40 min of incubation at room temperature, 200 μL of the revelation mix are added to a final volume of 260 μL, including the following constituents at the respective final concentrations: 2 nM luciferase (Sigma), 30 μM D-luciferin (Sigma), 100 μM N-acetylcysteamine (Aldrich). Luminescence intensity is immediately measured on an Analyst-HT (Molecular Devices) and converted into inhibition percentages. For IC50 determinations, the inhibitor is tested at 6 to 10 different concentrations, and the related inhibitions are fitted to a classical langmuir equilibrium model using XLFIT (IDBS).
The assay buffer “AB” contains 50 mM Hepes pH7.5, 1 mM MnCl2, 25 mM KCl, 0.012% Triton-X100 and 1 mM DTT. The following components are added in a black polystyrene Costar plate up to a final volume of 50 μL: 5 μL DMSO, or inhibitor dissolved in DMSO and 45 μL RfaE in AB. After 30 min of pre-incubation at room temperature, 50 μL of Substrates-revelation mix in AB are added in each well to a final volume of 100 μL. This reaction mixture is then composed of 66 μM RfaE (produced in house from E. coli), 1 μM β-heptose-7-phosphate (in house synthesis), 50 μM ATP (Sigma), 5 u/mL Pyruvate Kinase (Sigma), 50 μM phosphoenolpyruvate (Sigma), 5 u/mL Lactate dehydrogenase (Sigma) and 2.5 μM NADH (Sigma) in assay buffer. Fluorescence intensity of NADH (λex=360 nm, λem=520 nm) is immediately measured kinetically by a Fluostar Optima (BMG). Inhibition percentages are derived from fitted initial velocities. For IC50 determinations, the inhibitor is tested at 6 to 10 different concentrations, and the related inhibitions are fitted to a classical langmuir equilibrium model using XLFIT (IDBS).

T1 sequence (P76658 whole entry): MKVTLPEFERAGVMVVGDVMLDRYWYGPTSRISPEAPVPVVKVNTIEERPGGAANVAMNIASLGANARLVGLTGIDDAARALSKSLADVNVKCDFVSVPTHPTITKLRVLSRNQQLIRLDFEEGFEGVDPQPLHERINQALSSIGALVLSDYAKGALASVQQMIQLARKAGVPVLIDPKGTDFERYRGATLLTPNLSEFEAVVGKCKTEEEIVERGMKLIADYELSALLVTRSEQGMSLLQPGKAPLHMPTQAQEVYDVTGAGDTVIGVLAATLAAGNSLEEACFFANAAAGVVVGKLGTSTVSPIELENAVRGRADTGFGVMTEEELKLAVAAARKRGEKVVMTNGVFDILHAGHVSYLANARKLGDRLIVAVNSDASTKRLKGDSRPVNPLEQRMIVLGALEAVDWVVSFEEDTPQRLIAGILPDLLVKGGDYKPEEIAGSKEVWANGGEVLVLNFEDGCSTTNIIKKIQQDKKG

Molecule | Inhibition of RfaE biochemical activity (FIG. 1)
Cc1oc(-c2cccc([N+](=O)[O-])c2)nc1C(=O)N(CC(=O)O)Cc1ccccn1 [Example XXIII, [{[5-methyl-2-(3-nitrophenyl)-1,3-oxazol-4-yl]carbonyl}(pyridin-2-ylmethyl)amino]acetic Acid] | Dose Dependent Inhibition

Same assay, conditions: inhibitor tested at 6 to 10 concentrations; 30 min pre-incubation at room temperature

Molecule | IC50 [µM]
CC(=O)Oc1cccc(-c2nc(C)c(C(=O)N(CC(=O)O)Cc3ccccn3)o2)c1 [IV, [({2-[3-(acetyloxy)phenyl]-4-methyl-1,3-oxazol-5-yl}carbonyl)(pyridin-2-ylmethyl)amino]acetic Acid] | 52
Cc1oc(-c2ccccc2[N+](=O)[O-])nc1C(=O)N(CC(=O)O)Cc1ccccn1 [Example XXII, [{[5-methyl-2-(2-nitrophenyl)-1,3-oxazol-4-yl]carbonyl}(pyridin-2-ylmethyl)amino]acetic Acid] | 141
COc1cccc(-c2nc(C)c(C(=O)N(CC(=O)O)Cc3nc4cc(OC)ccc4s3)o2)c1 [XXX, ((5-methoxy-1,3-benzothiazol-2-ylmethyl){[2-(3-methoxyphenyl)-4-methyl-1,3-oxazol-5-yl]carbonyl}amino)acetic Acid] | 1.09
Cc1nc(-c2ccccc2)sc1C(=O)N(CC(=O)O)Cc1ccccn1 [IX, [[(4-methyl-2-phenyl-1,3-thiazol-5-yl)carbonyl](pyridin-2-ylmethyl)amino]acetic Acid] | 52
Cc1oc(-c2ccc(C(F)(F)F)cc2)nc1C(=O)N(CC(=O)O)Cc1ccccn1 [XVI, [({5-methyl-2-[4-(trifluoromethyl)phenyl]-1,3-oxazol-4-yl}carbonyl)(pyridin-2-ylmethyl)amino]acetic Acid] | 142
Cc1oc(-c2cccc(C(F)(F)F)c2)nc1C(=O)N(CC(=O)O)Cc1ccccn1 [XIV, [({5-methyl-2-[3-(trifluoromethyl)phenyl]-1,3-oxazol-4-yl}carbonyl)(pyridin-2-ylmethyl)amino]acetic Acid] | 35
Cc1oc(-c2ccc(N)cc2)nc1C(=O)N(CC(=O)O)Cc1ccccn1 [XXVII, [{[2-(4-aminophenyl)-5-methyl-1,3-oxazol-4-yl]carbonyl}(pyridin-2-ylmethyl)amino]acetic Acid] | 22
Cc1oc(-c2ccccc2)nc1C(=O)N(CC(=O)O)Cc1nccs1 [XXXIII, [[(5-methyl-2-phenyl-1,3-oxazol-4-yl)carbonyl](1,3-thiazol-2-ylmethyl)amino]acetic Acid] | 110
O=C(O)CN(Cc1ccccn1)C(=O)c1ccc(-c2ccccc2)o1 [VII, [(5-phenyl-2-furoyl)(pyridin-2-ylmethyl)amino]acetic Acid] | 100
Cc1oc(-c2ccccc2C(F)(F)F)nc1C(=O)N(CC(=O)O)Cc1ccccn1 [XV, [({5-methyl-2-[2-(trifluoromethyl)phenyl]-1,3-oxazol-4-yl}carbonyl)(pyridin-2-ylmethyl)amino]acetic Acid] | 121
Cc1oc(-c2ccccc2)nc1C(=O)N(CC(=O)O)Nc1ccccn1 [XXXI, {1-[(5-methyl-2-phenyl-1,3-oxazol-4-yl)carbonyl]-2-pyridin-2-ylhydrazino}acetic Acid] | 65
COc1ccc(-c2nc(C(=O)N(CC(=O)O)Cc3ccccn3)c(C)o2)cc1 [Example XXI, [{[2-(4-methoxyphenyl)-5-methyl-1,3-oxazol-4-yl]carbonyl}(pyridin-2-ylmethyl)amino]acetic Acid] | 75
[{[2-(4-bromophenyl)-5-methyl-1,3-oxazol-4-yl]carbonyl}(pyridin-2-ylmethyl)amino]acetic Acid [XVII] | 27
Cc1oc(-c2cccc(NC(=O)C3CC3)c2)nc1C(=O)N(CC(=O)O)Cc1ccccn1 [XXVIII, {[(2-{3-[(cyclopropylcarbonyl)amino]phenyl}-5-methyl-1,3-oxazol-4-yl)carbonyl](pyridin-2-ylmethyl)amino}acetic Acid] | 14
Cc1cccc(C)c1-c1nc(C)c(C(=O)N(CC(=O)O)Cc2nc3ccccc3s2)s1 [XL, ((1,3-benzothiazol-2-ylmethyl){[4-methyl-2-(2,6-dimethylphenyl)-1,3-thiazol-5-yl]carbonyl}amino)acetic Acid] | 50.5
Cc1nc(-c2ccc(Cl)cc2)oc1C(=O)N(CC(=O)O)Cc1ccccn1 [V, [{[2-(4-chlorophenyl)-4-methyl-1,3-oxazol-5-yl]carbonyl}(pyridin-2-ylmethyl)amino]acetic acid] | 54
Cc1nc(-c2cccc([N+](=O)[O-])c2)sc1C(=O)N(CC(=O)O)Cc1nc2ccccc2s1 [XXXIX, ((1,3-benzothiazol-2-ylmethyl){[4-methyl-2-(3-nitrophenyl)-1,3-thiazol-5-yl]carbonyl}amino)acetic Acid] | 0.5
Cc1nc(-c2ccc3[nH]ccc3c2)sc1C(=O)N(CC(=O)O)Cc1nc2ccccc2s1 [XXXVIII, ((1,3-benzothiazol-2-ylmethyl){[2-(1H-indol-5-yl)-4-methyl-1,3-thiazol-5-yl]carbonyl}amino)acetic Acid] | 0.33
Cc1oc(-c2ccccc2N)nc1C(=O)N(CC(=O)O)Cc1ccccn1 [XXVI, [{[2-(2-aminophenyl)-5-methyl-1,3-oxazol-4-yl]carbonyl}(pyridin-2-ylmethyl)amino]acetic Acid] | 31
O=C(O)CN(Cc1ccccn1)C(=O)c1nc(-c2ccccc2)oc1CN1CCOCC1 [II, [{[5-(morpholin-4-ylmethyl)-2-phenyl-1,3-oxazol-4-yl]carbonyl}(pyridin-2-ylmethyl)amino]acetic Acid] | 197
Cc1oc(-c2ccc(O)cc2)nc1C(=O)N(CC(=O)O)Cc1ccccn1 [XXIV, [{[2-(4-hydroxyphenyl)-5-methyl-1,3-oxazol-4-yl]carbonyl}(pyridin-2-ylmethyl)amino]acetic Acid] | 39
Cc1nc(-c2ccc(N)c([N+](=O)[O-])c2)sc1C(=O)N(CC(=O)O)Cc1ccccn1 [XXXVII, [{[2-(4-amino-3-nitrophenyl)-4-methyl-1,3-thiazol-5-yl]carbonyl}(pyridin-2-ylmethyl)amino]acetic Acid] | 12.9
Cc1nc(-c2ccccc2)oc1C(=O)N(CC(=O)O)Cc1ccccn1 [VI, [[(4-methyl-2-phenyl-1,3-oxazol-5-yl)carbonyl](pyridin-2-ylmethyl)amino]acetic Acid] | 71
Cc1nn(-c2ccccc2)nc1C(=O)N(CC(=O)O)Cc1ccccn1 [XI, [[(5-methyl-2-phenyl-2H-1,2,3-triazol-4-yl)carbonyl](pyridin-2-ylmethyl)amino]acetic Acid] | 48
COc1cccc(-c2nc(C(=O)N(CC(=O)O)Cc3ccccn3)c(C)o2)c1 [Example XX, [{[2-(3-methoxyphenyl)-5-methyl-1,3-oxazol-4-yl]carbonyl}(pyridin-2-ylmethyl)amino]acetic Acid] | 15
Cc1oc(-c2cccc(Br)c2)nc1C(=O)N(CC(=O)O)Cc1ccccn1 [XVIII, [{[2-(3-bromophenyl)-5-methyl-1,3-oxazol-4-yl]carbonyl}(pyridin-2-ylmethyl)amino]acetic Acid] | 10
COc1cccc(-c2nc(C)c(C(=O)N(CC(=O)O)Cc3ccccn3)o2)c1 [III, [{[2-(3-methoxyphenyl)-4-methyl-1,3-oxazol-5-yl]carbonyl}(pyridin-2-ylmethyl)amino]acetic Acid] | 17
COc1cccc(-c2nc(C)c(C(=O)N(CC(=O)O)Cc3nc4ccccc4s3)o2)c1 [XXIX, ((1,3-benzothiazol-2-ylmethyl){[2-(3-methoxyphenyl)-4-methyl-1,3-oxazol-5-yl]carbonyl}amino)acetic Acid] | 0.24
Cc1oc(-c2cccc([N+](=O)[O-])c2)nc1C(=O)N(CC(=O)O)Cc1ccccn1 [Example XXIII, [{[5-methyl-2-(3-nitrophenyl)-1,3-oxazol-4-yl]carbonyl}(pyridin-2-ylmethyl)amino]acetic Acid] | 3.8
